From patent publication US9618513B2, “Compositions and methods for detecting and treating colorectal cancer” (The Regents of the University of Michigan, priority 2014, dated 2017)
Entries after “also recorded” stand apart in the source; their conditions may differ.

Key:
STAT3 = assay: STAT phosphorylation by western blotting; type: cell-based, human; conditions: colon cancer cells treated with IL-22
Experimental: (A) IL-22 induced STAT3 phosphorylation. Colon cancer cells were treated with IL-22 for different time points. The protein levels of phosphorylated STAT3 and STAT3 were detected by Western blotting. (B, C) IL-22 induced colon cancer spheres via STAT3. Sphere assay was performed with shSTAT3 colon cancer cells in the presence of IL-22. Results were shown as sphere images (b) and the mean numbers of spheres in triplicate (c). (n=5. P<0.01). (D-F) IL-22 stimulated colon cancer sternness gene expression via STAT3. Colon cancer cells expressing shSTAT3 or scrambled vector were cultured with IL-22. Stem cell core gene mRNAs were detected by real-time PCR after 6 hours (n=5, *P<0.05). (G, H) IL-22 causes STAT3 occupancy on SOX2 promoter areas. STAT3-ChIP assay was performed in DLD-1 cells cultured with or without IL-22. One of at least three experiments is shown.
A. The protein level of phosphorylated STAT3, STAT1 and STATS were activated by IL-22. B. The effect of STAT3 knock down. C. The effect of IL-22 on cell proliferation was analyzed using H^3 Thymidine Incorporation in Stat3 knock down cells. D. Knock down of STAT3 reduced the expression of EZH2 and SUZ12. E. Based on the ENCODE STAT3-ChIP-Seq data base, STAT3 occupancy on the promoter areas of SUZ12 and EED is shown. F. SUZ12/EED DNA was detected by ChIP assay using an antibody against STAT3, c-fos was used as a positive control. […]

[1] = system: H3K27me3 in the promoter of p16 and p18; assay: H3K27me3 ChIP at p16 and p18 promoters; type: cell-based, human; conditions: after IL-22 stimulation
Experimental: A, C. Cell proliferation was analyzed using H^3 Thymidine Incorporation. B. The level of total H3K79m2 and H3K27me3 was measured by Western Blot. D. PcG proteins of EZH2, EED, SUZ12 was increased with IL-22(20 ng/ml) treatment. E. EZH2, SUZ12 and EED was detected by Western Blot after IL-22 treated for 24 h or 48 h. F. EZH2 inhibitor DZNep reduced cell proliferation. G.H. The efficiency of EZH2 and SUZ12 knock down was tested by Western Blot. I.J. Cell proliferation was analyzed using H^3 Thymidine Incorporation after knock down of EZH2 and SUZ12. K.L. Relative expression of cyclin-dependent kinase inhibitors (p16 and p18) in shEZH2, shSUZ12 and Dznep treated cells after IL-22 treatment. M. The level of H3K27me3 in the promoter of p16 and p18 was analyzed by ChIP assay.
ChIP assay was performed according to the protocol (Upstate, Millipore; htt, followed by, p://www.millip, followed by, ore.com/techpublica, followed by, tions/tech1/mcproto407). Crosslinking was performed with 1% formaldehyde or 1% paraformaldehyde for 10 min. To enhance cell lysis, we ran the lysate through a 27 g needle three times and flash froze it in −80° C. Sonication was then performed with the Misonix 4000 water bath sonication unit at 15% amplitude for 10 min. Protein/DNA complex was precipitated by specific antibodies against H3K79me2, H3K27me3 (Millipore), Stat3 (Cell Signaling) and IgG control (Millipore). […]

## IL-22: recombinant IL-22 (R&D systems), cytokine interleukin-22
STAT3
  STAT3 activation (phosphorylation): activated; also recorded: activated STAT3 strongly
[1]
  level of H3K27m3 in the promoter of p16 and p18: increased
